Experiment [1] deals with Mu-type opioid receptor (Cavia porcellus) (UniProt P97266). The note with it: Ileum, 100 nM.
Description: Antagonistic activity at Opioid receptor mu 1 in electrically stimulated Guinea pig ileum using morphine as the agonist at 100 nM
The target in experiment [2] is Delta-type opioid receptor (Homo sapiens) (UniProt P41143). The note with it: Cavia porcellus; Ileum; 20 nM.
Description: Antagonistic activity at Opioid receptor delta 1 in electrically stimulated Guinea pig ileum using DADLE as the agonist at 20 nM
The target in experiment [3] is Mu-type opioid receptor (Cavia porcellus) (UniProt P97266). The note with it: Ileum, 20 nM.
Description: Antagonistic activity at Opioid receptor mu 1 in electrically stimulated Guinea pig ileum using morphine as the agonist at 20 nM concentration
The target in experiment [4] is Delta-type opioid receptor (Homo sapiens) (UniProt P41143). The following applies: Cavia porcellus; Ileum; 20 nM. The source holds these as a separate data set.
Description: Antagonistic activity at Opioid receptor delta 1 in electrically stimulated Guinea pig ileum using DADLE as the agonist at 20 nM concentration
The target in experiment [5] is Kappa-type opioid receptor (Cavia porcellus) (UniProt P41144). The following applies: Ileum, 20 nM.
Chain of Kappa-type opioid receptor (Cavia porcellus) (P41144 whole entry): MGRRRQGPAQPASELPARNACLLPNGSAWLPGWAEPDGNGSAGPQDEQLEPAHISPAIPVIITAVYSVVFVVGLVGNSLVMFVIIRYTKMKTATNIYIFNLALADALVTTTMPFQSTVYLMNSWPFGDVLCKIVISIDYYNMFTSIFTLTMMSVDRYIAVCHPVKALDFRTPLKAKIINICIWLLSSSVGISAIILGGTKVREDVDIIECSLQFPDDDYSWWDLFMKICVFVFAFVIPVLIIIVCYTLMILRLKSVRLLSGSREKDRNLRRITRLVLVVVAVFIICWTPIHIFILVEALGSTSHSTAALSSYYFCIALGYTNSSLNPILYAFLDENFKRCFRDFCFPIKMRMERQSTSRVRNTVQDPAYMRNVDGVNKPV
Description: Antagonistic activity at Opioid receptor kappa 1 in electrically stimulated Guinea pig ileum using ethylketazocine as the agonist at 20 nM concentration

Molecules are shown by their SMILES.

Chain of Delta-type opioid receptor (Homo sapiens) (P41143 whole entry): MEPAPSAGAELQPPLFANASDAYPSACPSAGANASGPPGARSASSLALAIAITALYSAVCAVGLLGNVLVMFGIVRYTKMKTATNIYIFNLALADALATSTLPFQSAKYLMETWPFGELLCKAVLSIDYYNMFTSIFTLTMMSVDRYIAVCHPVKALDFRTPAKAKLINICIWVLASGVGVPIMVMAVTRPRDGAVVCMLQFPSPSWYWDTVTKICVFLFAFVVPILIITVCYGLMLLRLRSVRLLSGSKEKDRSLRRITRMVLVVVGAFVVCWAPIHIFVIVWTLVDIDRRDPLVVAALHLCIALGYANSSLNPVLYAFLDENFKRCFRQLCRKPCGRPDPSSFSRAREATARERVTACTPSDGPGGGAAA
Chain of Mu-type opioid receptor (Cavia porcellus) (P97266 whole entry): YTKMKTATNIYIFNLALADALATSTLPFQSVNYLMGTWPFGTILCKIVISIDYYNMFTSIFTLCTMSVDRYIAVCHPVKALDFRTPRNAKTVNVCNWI

In experiment [1], `Oc1ccc2c3c1O[C@@H]1c4[nH]c5c(c4C[C@]4(O)[C@H](C2)N(CC2CC2)CC[C@@]314)C[C@]1(O)[C@@H]2Cc3ccc(O)c4c3[C@]1(CCN2CC1CC1)[C@@H]5O4` returned a Ke of 77 nM.
In experiment [2], `Oc1ccc2c3c1O[C@H]1c4[nH]c5c(c4C[C@@]4(O)[C@@H](C2)N(CC2CC2)CC[C@]314)C[C@@]1(O)[C@H]2Cc3ccc(O)c4c3[C@@]1(CCN2CC1CC1)[C@H]5O4` came in with a Ke of 10 nM.
`Oc1ccc2c3c1O[C@H]1c4[nH]c5c(c4C[C@@]4(O)[C@@H](C2)N(CC2CC2)CC[C@]314)C[C@]1(O)[C@@H]2Cc3ccc(O)c4c3[C@]1(CCN2CC1CC1)[C@@H]5O4`: the figures for the Ke in experiment [3], in experiment [4] and in experiment [5] were 1.1 nM, 1.3 nM and 0.08 nM, respectively.

Values taken from ChEMBL document CHEMBL1124272, “Only one pharmacophore is required for the kappa opioid antagonist selectivity of norbinaltorphimine” (J Med Chem, 1988).
